{"source": "patent EP1107982B1", "about": "“[…] COMPLEXES OF 1,2-(CIS)-DIOL CYCLIC PEPTIDES” (Eli Lilly & Company, priority 1998, dated 2000)", "key": {"[1]": {"test": "Stability of Compound C1 in m-APBA at alkaline pH (HPLC main peak purity)", "format": "physicochemical", "protocol": "(§1) Unless indicated otherwise, all chemicals can be acquired from commercial sources (i.e., Aldrich Chemical, Sigma, etc.) in reagent grade or better. Centrifugation was performed using an IEC benchtop clinical centrifuge equipped with six-place swinging-bucket rotor (for samples > 1.5 ml) and an Eppendorf tabletop centri fuge model 5415C equipped with standard 18-place rotor (for samples ≤ 1.5 ml). HPLC analyses were performed using a Hewlett Packard Liquid Chromatograph Model 1090 equipped with a 0.46 x 25 cm Zorbax™ SB-C8 column. All injections were 10 µl, followed by gradient elution from 40-100% acetonitrile (AcN) over 25 minutes and UV detection at 280 nm. Unless otherwise stated, samples were diluted in 0.25 N acetic acid/AcN prior to injection to facilitate decomplexation and ensure solubility in the HPLC solvent system. All alkaline pH adjustments were made by addition of a 1:1 mixture of ammonium hydroxide and 50% sodium hydroxide. Measurements were taken with a Beckman φ40 pH meter calibrated with pH 7 and pH 10 standards.\nCompound C1 was suspended at 100 mg/ml (65% potency: 65 mg/ml (57 mM) in either 250 mM m-APBA or water (control). Separate samples were adjusted to pH 8.0, 8.5, 9.0, 9.5 and 10.0. Aliquots for time-point analysis were removed and diluted 100-fold in 100 mM acetic acid/methanol prior to HPLC injection. Stability was assessed by analysis of main peak purity, since degradation products are known to elute within the HPLC chromatographic window."}, "[2]": {"test": "Solubility of Compound C1 in the presence of m-APBA (suspension, centrifugation, HPLC of supernatant)", "format": "physicochemical", "details": "for appearance of aqueous solution: 30 mg/ml", "protocol": "as §1\nCrude C1 was suspended at 50 mg/ml (65% potency: 32.5 mg/ml, or 28.5 mM) in 4 ml of either 100 mM m-APBA or 100 mM ammonium bicarbonate (control) at pH 5.0 and pH 9.0. The samples were stirred at room temperature for 2 hours, at which time aliquots were removed and assayed both before and after centrifugation for five minutes at […]. All samples were diluted 50-fold prior to HPLC analysis.\nAt low pH (≤ 8.0), solid suspensions of Compound C1 in m-APBA and in ammonium bicarbonate were visually identical. Both were opaque and contained varying amounts of solid, insoluble material. However, when the pH was adjusted to 9.0 dramatic differences in appearance between the two samples was observed within approximately 30 minutes. The aqueous ammonium bicarbonate control was beige in color and completely opaque; whereas, the sample containing m-APBA turned a transparent, dark brown. When the mixtures were subjected to centrifugation for 5 minutes at 16,000 x g and the resulting supernatants quantified by HPLC analysis, the concentration of C1 present in the m-APBA supernatant was 23.76 mg/ml (94% of that in the original suspension) and only 2.27 mg/ml (10% of the original suspension) was present in the ammonium bicarbonate control supernatant."}, "[3]": {"details": "m-APBA replaced with boric acid (borate complex)"}}, "note": "*1 amine or outer side, *2 acyl side, *3 side chain or, on linkers, in order; H or OH if unused. Where a SMILES comes first, the peptide text is derived from it. Bridges are numbered along the chain shown (N, C = ends). [ ]: non-standard residue; d: D form. The star is where a group is joined. pTerphenylCO(4''-OnC5H11) = CCCCCOc1ccc(-c2ccc(-c3ccc(C(=O)*)cc3)cc2)cc1; Orn(4R-OH,5R-OH) = O=C([C@H](C[C@@H](O)[C@@H](O)N[*:3])N[*:1])[*:2]; hTyr(3S-OH,4S-OH) = N[C@H](C(=O)O)[C@H](O)[C@@H](O)c1ccc(O)cc1; Pro(3S-OH,4S-Me) = C[C@H]1CN[C@H](C(=O)O)[C@H]1O; Hyp = O=C(O)[C@@H]1C[C@@H](O)CN1", "data": [{"smiles": "CCCCCOc1ccc(-c2ccc(-c3ccc(C(=O)N[C@H]4C[C@@H](O)[C@@H](O)NC(=O)[C@@H]5[C@@H](O)[C@@H](C)CN5C(=O)[C@H]([C@@H](C)O)NC(=O)[C@H]([C@H](O)[C@@H](O)c5ccc(O)cc5)NC(=O)[C@@H]5C[C@@H](O)CN5C(=O)[C@H]([C@@H](C)O)NC4=O)cc3)cc2)cc1", "note": "[Compound C1] ({pTerphenylCO(4''-OnC5H11)}-[Orn(4R-OH,5R-OH)]T[Hyp][hTyr(3S-OH,4S-OH)]T[Pro(3S-OH,4S-Me)]; lactam 1-C)", "values": [{"measurement": "purity (main peak)", "setting": "[1]; 250 mM m-APBA, pH 9.5, after 17 hours", "value": "> 70", "unit": "%"}, {"measurement": "purity (main peak, of the total peak area)", "setting": "[1]; aqueous control (water), pH 9.5, after 9 hours", "value": "less than 70%"}, {"measurement": "chemical stability in comparison to the aqueous control", "setting": "[1]; in the presence of m-APBA, alkaline pH", "value": "enhanced chemical stability"}, {"measurement": "stability of complex", "setting": "[1]; [3]", "value": "very stable"}, {"measurement": "stability of complex", "setting": "[1]; p-carboxyphenylboronic acid used instead of m-APBA", "value": "did not appear to be as stable"}, {"measurement": "concentration in supernatant as % of the original suspension", "setting": "[2]; 100 mM ammonium bicarbonate control, pH 9.0", "value": 10, "unit": "%"}, {"measurement": "solubility thermodynamic at 2 h", "setting": "[2]; 100 mM ammonium bicarbonate control, pH 9.0, room temperature, crude C1 suspended at 50 mg/ml (32.5 mg/ml), after centrifugation, read-out: concentration of C1 present in the supernatant", "value": 2270, "unit": "µg/mL"}, {"measurement": "concentration in supernatant as % of that in the original suspension", "setting": "[2]; 100 mM m-APBA, pH 9.0", "value": 94, "unit": "%"}, {"measurement": "concentration of C1 present in the supernatant", "setting": "[2]; 100 mM m-APBA, pH 9.0, room temperature, crude C1 suspended at 50 mg/ml (32.5 mg/ml), after centrifugation", "value": 23760, "unit": "µg/mL"}, {"measurement": "appearance of aqueous solution", "setting": "[2]; boronate complex", "value": "transparent solution"}, {"measurement": "increase in solubility", "setting": "[2]; in the presence of m-aminophenyl boronic acid at pH 9.0 in aqueous solution", "value": 10, "unit": "fold"}, {"measurement": "solubility of complex", "setting": "[2]; [3]", "value": "increased solubility"}, {"measurement": "solubility of complex", "setting": "[2]; m-APBA replaced with p-carboxyphenyl boronic acid (boronate complex)", "value": "increased solubility"}, {"measurement": "appearance of aqueous solution", "setting": "[2]; non-complexed", "value": "opaque slurry"}]}]}
